In patent publication US20100076015A1, “Aminopyridine Derivatives” (VANTIA LIMITED, priority 2008, published 2010):

molecular target: T1, Human KLK1 (Homo sapiens, UniProt P06870); assay: Determination of the IC50 for KLK1 (fluorogenic substrate H-DVal-Leu-Arg-AFC); format: biochemical; settings: 37° C.
T1 construct: purchased Callbiochem (Calbiochem)
How it was run: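 hKLK1 + H-DVal-Leu-Arg-AFC, 37° C, varied cpd conc. Initial rate by A410 change → residual activity → IC50.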

T1 sequence (P06870 25-262): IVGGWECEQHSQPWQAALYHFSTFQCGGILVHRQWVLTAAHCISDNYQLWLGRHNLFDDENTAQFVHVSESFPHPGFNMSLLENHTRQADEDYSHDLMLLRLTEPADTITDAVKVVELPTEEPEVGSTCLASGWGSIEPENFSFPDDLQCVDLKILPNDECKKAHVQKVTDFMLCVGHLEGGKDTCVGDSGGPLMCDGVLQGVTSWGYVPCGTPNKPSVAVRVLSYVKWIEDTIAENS

SMILES | IC50
Cc1cc[nH]c1C(=O)N[C@@H](Cc1cc(Cl)ccc1Cl)C(=O)NCc1ccc(N)nc1 [Example 263, 3-Methyl-1H-pyrrole-2-carboxylic acid [(S)-1-[(6-amino-pyridin-3-ylmethyl)-carbamoyl]-2-(2,5-dichloro-phenyl)-ethyl]-amide] | 20.5 nM
Cc1cc[nH]c1C(=O)N[C@@H](Cc1ccc(Cl)c(Cl)c1)C(=O)NCc1ccc(N)nc1 [Example 264, 3-Methyl-1H-pyrrole-2-carboxylic acid [(S)-1-[(6-amino-pyridin-3-ylmethyl)-carbamoyl]-2-(3,4-dichloro-phenyl)-ethyl]-amide] | 3.1 nM
Cc1cc[nH]c1C(=O)N[C@@H](Cc1ccccc1F)C(=O)NCc1ccc(N)nc1 [Example 265, 3-Methyl-1H-pyrrole-2-carboxylic acid [(S)-1-[(6-amino-pyridin-3-ylmethyl)-carbamoyl]-2-(2-fluoro-phenyl)-ethyl]-amide] | 21.6 nM
Cc1cc[nH]c1C(=O)N[C@@H](Cc1cccc(Cl)c1)C(=O)NCc1ccc(N)nc1 [Example 266, 3-Methyl-1H-pyrrole-2-carboxylic acid [(S)-1-[(6-amino-pyridin-3-ylmethyl)-carbamoyl]-2-(3-chloro-phenyl)-ethyl]-amide] | 5.7 nM
Cc1cc[nH]c1C(=O)N[C@@H](Cc1ccc(Cl)cc1)C(=O)NCc1ccc(N)nc1 [Example 267, 3-Methyl-1H-pyrrole-2-carboxylic acid [(S)-1-[(6-amino-pyridin-3-ylmethyl)-carbamoyl]-2-(4-chloro-phenyl)-ethyl]-amide] | 8.2 nM
Cc1cccc(C[C@H](NC(=O)c2[nH]ccc2C)C(=O)NCc2ccc(N)nc2)c1 [Example 268, 3-Methyl-1H-pyrrole-2-carboxylic acid {(S)-1-[(6-amino-pyridin-3-ylmethyl)-carbamoyl]-2-m-tolyl-ethyl}-amide] | 7.7 nM
Cc1cc[nH]c1C(=O)N[C@@H](Cc1cccc(F)c1)C(=O)NCc1ccc(N)nc1 [Example 269, 3-Methyl-1H-pyrrole-2-carboxylic acid [(S)-1-[(6-amino-pyridin-3-ylmethyl)-carbamoyl]-2-(3-fluoro-phenyl)-ethyl]-amide] | 26.1 nM
Cc1cc[nH]c1C(=O)N[C@@H](Cc1cc(F)cc(F)c1)C(=O)NCc1ccc(N)nc1 [Example 270, 3-Methyl-1H-pyrrole-2-carboxylic acid [(S)-1-[(6-amino-pyridin-3-ylmethyl)-carbamoyl]-2-(3,5-difluoro-phenyl)-ethyl]-amide] | 20.9 nM
Cc1cc[nH]c1C(=O)N[C@@H](Cc1cccc(C(F)(F)F)c1)C(=O)NCc1ccc(N)nc1 [Example 271, 3-Methyl-1H-pyrrole-2-carboxylic acid [(S)-1-[(6-amino-pyridin-3-ylmethyl)-carbamoyl]-2-(3-trifluoromethyl-phenyl)-ethyl]-amide] | 3.3 nM
Cc1cc[nH]c1C(=O)N[C@@H](CC1CCCCC1)C(=O)NCc1ccc(N)nc1 [Example 273, 3-Methyl-1H-pyrrole-2-carboxylic acid {(S)-1-[(6-amino-pyridin-3-ylmethyl)-carbamoyl]-2-cyclohexyl-ethyl}-amide] | 375 nM
COC(=O)c1ccc(C(=O)N[C@@H](Cc2cccc(C(F)(F)F)c2)C(=O)NCc2ccc(N)nc2)[nH]1 [Example 274, 5-[(S)-1-[(6-Amino-pyridin-3-ylmethyl)-carbamoyl]-2-(3-trifluoromethyl-phenyl)-ethylcarbamoyl]-1H-pyrrole-2-carboxylic acid methyl ester] | 4.8 nM
Nc1ccc(CNC(=O)[C@H](Cc2cccc(C(F)(F)F)c2)NC(=O)c2ccc(C(=O)O)[nH]2)cn1 [Example 275, 5-[(S)-1-[(6-Amino-pyridin-3-ylmethyl)-carbamoyl]-2-(3-trifluoromethyl-phenyl)-ethylcarbamoyl]-1H-pyrrole-2-carboxylic acid] | 147 nM
Cc1cc(C(=O)O)[nH]c1C(=O)N[C@@H](Cc1cccc(C(F)(F)F)c1)C(=O)NCc1ccc(N)nc1 [Example 276, 5-[(S)-1-[(6-Amino-pyridin-3-ylmethyl)-carbamoyl]-2-(3-trifluoromethyl-phenyl)-ethylcarbamoyl]-4-methyl-1H-pyrrole-2-carboxylic acid] | 30.5 nM
Cc1cc(C)c(C(=O)N[C@@H](Cc2cccc3ccccc23)C(=O)NCc2ccc(N)nc2C)[nH]1 [Example 278, 3,5-Dimethyl-1H-pyrrole-2-carboxylic acid {(S)-1-[(6-amino-2-methyl-pyridin-3-ylmethyl)-carbamoyl]-2-naphthalen-1-yl-ethyl}-amide] | 3.2 nM

The next lines start with the values.

IC50 | SMILES
4.5 nM | Cc1cc(C)c(C(=O)N[C@@H](Cc2cccc(Cl)c2)C(=O)NCc2ccc(N)nc2C)[nH]1 [Example 279, 3,5-Dimethyl-1H-pyrrole-2-carboxylic acid [(S)-1-[(6-amino-2-methyl-pyridin-3-ylmethyl)-carbamoyl]-2-(3-chloro-phenyl)-ethyl]-amide]
1.9 nM | Cc1cc(C)c(C(=O)N[C@@H](Cc2ccc(Cl)c(Cl)c2)C(=O)NCc2ccc(N)nc2C)[nH]1 [Example 280, 3,5-Dimethyl-1H-pyrrole-2-carboxylic acid [(S)-1-[(6-amino-2-methyl-pyridin-3-ylmethyl)-carbamoyl]-2-(3,4-dichloro-phenyl)-ethyl]-amide]
1.8 nM | Cc1cccc(C[C@H](NC(=O)c2[nH]c(C)cc2C)C(=O)NCc2ccc(N)nc2C)c1 [Example 281, 3,5-Dimethyl-1H-pyrrole-2-carboxylic acid {(S)-1-[(6-amino-2-methyl-pyridin-3-ylmethyl)-carbamoyl]-2-m-tolyl-ethyl}-amide]
1.3 nM | Cc1cc(C)c(C(=O)N[C@@H](Cc2ccccc2C(F)(F)F)C(=O)NCc2ccc(N)nc2C)[nH]1 [Example 282, 3,5-Dimethyl-1H-pyrrole-2-carboxylic acid [(S)-1-[(6-amino-2-methyl-pyridin-3-ylmethyl)-carbamoyl]-2-(2-trifluoromethyl-phenyl)-ethyl]-amide]
5.1 nM | Cc1cc(C)c(C(=O)N[C@@H](Cc2c[nH]c3ccccc23)C(=O)NCc2ccc(N)nc2C)[nH]1 [Example 283, 3,5-Dimethyl-1H-pyrrole-2-carboxylic acid [(S)-1-[(6-amino-2-methyl-pyridin-3-ylmethyl)-carbamoyl]-2-(1H-indol-3-yl)-ethyl]-amide]
5.2 nM | Cc1cc(C)c(C(=O)N[C@@H](Cc2ccc(F)c(F)c2)C(=O)NCc2ccc(N)nc2C)[nH]1 [Example 284, 3,5-Dimethyl-1H-pyrrole-2-carboxylic acid [(S)-1-[(6-amino-2-methyl-pyridin-3-ylmethyl)-carbamoyl]-2-(3,4-difluoro-phenyl)-ethyl]-amide]
6.5 nM | Cc1cc(C)c(C(=O)N[C@@H](Cc2ccc(F)cc2)C(=O)NCc2ccc(N)nc2C)[nH]1 [Example 285, 3,5-Dimethyl-1H-pyrrole-2-carboxylic acid [(S)-1-[(6-amino-2-methyl-pyridin-3-ylmethyl)-carbamoyl]-2-(4-fluoro-phenyl)-ethyl]-amide]
4.3 nM | Cc1cc[nH]c1C(=O)N[C@@H](Cc1ccc(F)c(F)c1)C(=O)NCc1ccc(N)nc1C [Example 286, 3-Methyl-1H-pyrrole-2-carboxylic acid [(S)-1-[(6-amino-2-methyl-pyridin-3-ylmethyl)-carbamoyl]-2-(3,4-difluoro-phenyl)-ethyl]-amide]
